# Test results from paper PMC8286840, “Identifying SARS-CoV-2 antiviral compounds by screening for small molecule inhibitors of Nsp3 papain-like protease” (Biochemical Journal, 2021).
# Structures can show the parent of a compound that is named as a salt. Where two headings read alike, the source gives them in different places. Where a SMILES comes first, the peptide text is derived from it. The star is where a group is joined. Cbz = O=C(OCc1ccccc1)*; CH2F = FC*
# Columns and labels:
# [1] = molecular target: T1, SARS-CoV-2 PLpro (nsp3 1564–1878) (Severe acute respiratory syndrome coronavirus 2, UniProt P0DTD1); assay: biochemical; set-up: FRET-quenched peptide (Pro3) cleavage by PLpro, 10 min pre-incubation, slope over 20 min, normalised to no-compound control; conditions: low concentration screen, read-out: % of control remaining
# [2] = molecular target: T1, SARS-CoV-2 PLpro (nsp3 1564–1878); assay: biochemical; set-up: FRET-quenched peptide (Pro3) cleavage by PLpro, 10 min pre-incubation, slope over 20 min, normalised to no-compound control; conditions: high concentration screen, read-out: % of control remaining
compound,measurement,setting,value
Cc1cc(C(C)(C)C)cc(C)c1CC1=NCCN1 [Xylometazoline (hydrochloride)],remaining activity at 1.25 µM,[1]; Well no.=6281,106%
same,remaining activity at 3.75 µM,[2]; Well no.=6281,106%
Cc1cc(C(C)(C)C)cc(C)c1CC1=NCCN1 [Xylometazoline hydrochloride],remaining activity at 1.25 µM,[1]; Well no.=1484,96.8%
same,remaining activity at 3.75 µM,[2]; Well no.=1484,96.2%
O=C[C@H](O)[C@@H](O)[C@H](O)CO [Xylose],remaining activity at 1.25 µM,[1]; Well no.=6351,103%
same,remaining activity at 1.25 µM,[1]; Well no.=8144,99.9%
same,remaining activity at 3.75 µM,[2]; Well no.=6351,105%
same,remaining activity at 3.75 µM,[2]; Well no.=8144,96.9%
C[C@@H](N)[C@H]1CC[C@H](C(=O)Nc2ccncc2)CC1 [Y-27632 dihydrochloride - trans-4-[(1R)-1-Aminoethyl]-N-4-pyridinylcyclohexanecarboxamide dihydrochloride],remaining activity at 1.25 µM,[1]; Well no.=2350,105%
same,remaining activity at 3.75 µM,[2]; Well no.=2350,104%
CCOC(=O)c1[nH]c2cc(Cl)ccc2c1C(C(=O)NC(C)(C)C)N(C=O)Cc1ccc(Cl)cc1 (stereo not drawn) [YH239-EE],remaining activity at 1.25 µM,[1]; Well no.=6392,98.6%
same,remaining activity at 3.75 µM,[2]; Well no.=6392,97.4%
COc1ccc(C(=O)CC2(O)C(=O)Nc3c(Cl)ccc(Cl)c32)cc1 (stereo not drawn) [YK-4-279],remaining activity at 1.25 µM,[1]; Well no.=6444,97.8%
same,remaining activity at 3.75 µM,[2]; Well no.=6444,98.7%
O=c1ccccn1CC1(O)CCN(Cc2ccccc2)CC1 [YL0919],remaining activity at 1.25 µM,[1]; Well no.=8009,101%
same,remaining activity at 3.75 µM,[2]; Well no.=8009,98.2%
COCC[n+]1c2c(n(Cc3cnccn3)c1C)C(=O)c1ccccc1C2=O [YM-155],remaining activity at 1.25 µM,[1]; Well no.=6678,94.8%
same,remaining activity at 3.75 µM,[2]; Well no.=6678,91.4%
C[C@H](NC(=O)Cc1cc(F)cc(F)c1)C(=O)N[C@@H]1C(=O)N(C)c2ccccc2-c2ccccc21 [YO-01027],remaining activity at 1.25 µM,[1]; Well no.=4687,101%
same,remaining activity at 3.75 µM,[2]; Well no.=4687,105%
COc1ccc(CCN(C)CCc2ccc(OC)c(OC)c2)cc1OC [YS-035 hydrochloride],remaining activity at 1.25 µM,[1]; Well no.=1246,103%
same,remaining activity at 3.75 µM,[2]; Well no.=1246,102%
Cc1ccc(NC(=O)C(=O)NC2CC(C)(C)NC(C)(C)C2)cc1 [YYA-021],remaining activity at 1.25 µM,[1]; Well no.=8084,102%
same,remaining activity at 3.75 µM,[2]; Well no.=8084,106%
COc1ccc(/C=C/c2cc(OC)cc(=O)o2)cc1 [Yangonin],remaining activity at 1.25 µM,[1]; Well no.=3765,90.2%
same,remaining activity at 3.75 µM,[2]; Well no.=3765,90.6%
COC(=O)[C@@H]1[C@H]2C[C@H]3c4[nH]c5ccccc5c4CCN3C[C@@H]2CC[C@@H]1O [Yohimbine (Hydrochloride)],remaining activity at 1.25 µM,[1]; Well no.=8337,103%
same,remaining activity at 3.75 µM,[2]; Well no.=8337,97.4%
COC(=O)[C@@H]1[C@H]2C[C@H]3c4[nH]c5ccccc5c4CCN3C[C@@H]2CC[C@@H]1O [Yohimbine hydrochloride],remaining activity at 1.25 µM,[1]; Well no.=1198,105%
same,remaining activity at 3.75 µM,[2]; Well no.=1198,104%
COC(=O)CC[C@H](NC(=O)[C@H](CC(=O)OC)NC(=O)OCc1ccccc1)C(=O)N[C@H](C(=O)N[C@@H](CC(=O)OC)C(=O)CF)C(C)C [Z-DEVD-FMK],remaining activity at 1.25 µM,[1]; Well no.=7172,102%
same,remaining activity at 1.25 µM,[1]; Well no.=7636,95.2%
same,remaining activity at 3.75 µM,[2]; Well no.=7172,99.7%
same,remaining activity at 3.75 µM,[2]; Well no.=7636,91.3%
CC[C@H](C)[C@H](NC(=O)OCc1ccccc1)C(=O)N[C@@H](CCC(=O)OC)C(=O)N[C@H](C(=O)N[C@@H](CC(=O)OC)C(=O)CF)[C@@H](C)O [Z-IETD-FMK] (Cbz-IE(OMe)TD(OMe)-CH2F),remaining activity at 1.25 µM,[1]; Well no.=8262,98.1%
same,remaining activity at 3.75 µM,[2]; Well no.=8262,96.2%
O=C(N[C@@H](Cc1ccccc1)C(=O)CCl)OCc1ccccc1 [Z-L-Phe chloromethyl ketone],remaining activity at 1.25 µM,[1]; Well no.=238,100%
same,remaining activity at 3.75 µM,[2]; Well no.=238,101%
COC(=O)C[C@H](NC(=O)[C@H](C)NC(=O)[C@@H](NC(=O)OCc1ccccc1)C(C)C)C(=O)CF [Z-VAD(OMe)-FMK] (Cbz-Val-Ala-Asp(OMe)-CH2F),remaining activity at 1.25 µM,[1]; Well no.=7116,101%
same,remaining activity at 1.25 µM,[1]; Well no.=8598,100%
same,remaining activity at 3.75 µM,[2]; Well no.=7116,94.5%
same,remaining activity at 3.75 µM,[2]; Well no.=8598,100%
Cc1cc(C)nc(NS(=O)(=O)c2ccc(NC(=S)NC(=O)COc3ccc(Br)cc3Cl)cc2)n1 [ZCL278],remaining activity at 1.25 µM,[1]; Well no.=7884,98.2%
same,remaining activity at 1.25 µM,[1]; Well no.=8389,102%
same,remaining activity at 3.75 µM,[2]; Well no.=7884,99.2%
same,remaining activity at 3.75 µM,[2]; Well no.=8389,96.3%
OCCOCCN1CCN(Cc2cccc(Oc3ccccc3)c2)CC1 [ZK756326 (dihydrochloride)],remaining activity at 1.25 µM,[1]; Well no.=6178,99.6%
same,remaining activity at 1.25 µM,[1]; Well no.=8117,104%
same,remaining activity at 3.75 µM,[2]; Well no.=6178,101%
Cc1cc(N=Nc2ccc3c(c2)CCC(=O)N3)c(N)cc1O [ZL0420],remaining activity at 1.25 µM,[1]; Well no.=8468,103%
same,remaining activity at 3.75 µM,[2]; Well no.=8468,95.2%
CC(C)N(CCC(=O)c1ccc2ccccc2c1)Cc1ccccc1 [ZM39923 (hydrochloride)],remaining activity at 1.25 µM,[1]; Well no.=8170,104%
same,remaining activity at 3.75 µM,[2]; Well no.=8170,98%
Nc1nc(NCCc2ccc(O)cc2)nc2nc(-c3ccco3)nn12 [ZM241385],remaining activity at 1.25 µM,[1]; Well no.=7042,106%
same,remaining activity at 1.25 µM,[1]; Well no.=8411,90.6%
same,remaining activity at 3.75 µM,[2]; Well no.=7042,104%
same,remaining activity at 3.75 µM,[2]; Well no.=8411,88.3%
CC(C)N(CCC(=O)c1ccc2ccccc2c1)Cc1ccccc1 [ZM 39923 hydrochloride - 3-Benzylisopropylamino-1-naphthalen-2-yl-propan-1-one hydrochloride],remaining activity at 1.25 µM,[1]; Well no.=2390,96.3%
same,remaining activity at 3.75 µM,[2]; Well no.=2390,98.1%
Cc1cc(F)c(Nc2ncnc3cc(OCc4ccccc4)ccc23)cc1O [ZM 323881 hydrochloride - 5-((7-Benzyloxyquinazolin-4-yl)amino)-4-fluoro-2-methylphenol hydrochloride],remaining activity at 1.25 µM,[1]; Well no.=2538,91.5%
same,remaining activity at 3.75 µM,[2]; Well no.=2538,92%
Cc1ccc(NC(=O)c2cccc(N(C)C)c2)cc1NC(=O)c1ccc(O)cc1 [ZM 336372],remaining activity at 1.25 µM,[1]; Well no.=5878,103%
same,remaining activity at 3.75 µM,[2]; Well no.=5878,102%
COc1cc2c(Nc3ccc(NC(=O)c4ccccc4)cc3)ncnc2cc1OCCCN1CCOCC1 [ZM 447439 - N-[4-[[6-Methoxy-7-[3-(4-morpholinyl)propoxy]-4-quinazolinyl]amino]phenyl]benzamide],remaining activity at 1.25 µM,[1]; Well no.=2534,97.3%
same,remaining activity at 3.75 µM,[2]; Well no.=2534,96.9%
C=CC(=O)c1ccc2ccccc2c1 [ZM 449829 - 1-(2-Naphthalenyl)-2-propen-1-one],remaining activity at 1.25 µM,[1]; Well no.=2388,105%
same,remaining activity at 3.75 µM,[2]; Well no.=2388,106%
FC(F)c1nc2ccccc2n1-c1nc(N2CCOCC2)nc(N2CCOCC2)n1 [ZSTK474],remaining activity at 1.25 µM,[1]; Well no.=4623,102%
same,remaining activity at 3.75 µM,[2]; Well no.=4623,106%
COc1cc(C(=O)NS(=O)(=O)c2ccccc2C)ccc1Cc1cn(C)c2ccc(NC(=O)OC3CCCC3)cc12 [Zafirlukast],remaining activity at 1.25 µM,[1]; Well no.=1762,99.5%
same,remaining activity at 1.25 µM,[1]; Well no.=8579,102%
same,remaining activity at 3.75 µM,[2]; Well no.=8579,101%
